These results are taken from US7341730B1, “Inhibitors of angiogenesis and tumor growth” (University of Southern California, priority 1998, dated 2008).

What all share (format): cell-based
The subject of one assay is KS Y-1 cells. Kind of assay: KS Y-1 cell proliferation assay (MTT). Particulars: concentration not given. On the procedure: (§1) To determine if Saposin B polypeptides had anti-angiogenic activity, a series of overlapping polypeptides were synthesized and tested in the KS Y-1 cell proliferation assay. The overlapping polypeptides are SEQ ID NOs:13 though 43. Cell Proliferation assays in either KS cells or fibroblast. Cells were plated in 48 well plates at equal numbers in appropriate culture medium. Cells were treated with the test compounds at various concentrations on day one, and on day 3. MTT was done on day 5. KS cells were used to represent the activated endothelial cells, while fibroblast cells represent the control cells. The results are remarkable for the lack of toxicity to the fibroblast relative to the activated endothelial cells/KS cells.

Assay [1] has as its system KS cell lines. Kind of assay: KS cell migration in transwell plates. Particulars: KS cell lines. The protocol:
The assays were done in double chamber wells separated by fibrinogen-coated membrane. Chemotaxis was induced by bFGF (25 ng/mL) in the lower chamber. Endothelial cells or KS cells (5×10^4/mL) were placed in the upper chamber in the presence and absence of test polypeptides. Taxol at 10 ng/mL was used as a known inhibitor of migration. Cell migration across the membrane was quantitated after an overnight incubation.
Angiogenesis is mediated by complex biochemical processes including degradation of the basement membrane under existing blood vessel endothelial cells, followed by proliferation and migration of endothelial cells, followed by formation of capillary loops, and recruitment of vascular smooth muscle cells to encase the newly formed vessels and provide stability. KS and endothelial cell migration in the presence of Saposin B was studied in transwell culture plates with 8 μm pore membranes (Costar, Cambridge, Mass.).
Briefly, wells were coated with fibronectin (25 μg/mL) overnight, and endothelial cells or KS cells were plated in the upper chamber with 100 μL of DMEM/0.4% FCS. 500 μL of DMEM/0.4% FCS was added to the lower chamber and incubated at 37° C. for one hour. The test polypeptides, at various concentrations, were added to the upper chamber, and chemotactic agents (VEGF or bFGF at 20 ng/mL) were added to the lower cell-culture chambers. The plates were incubated for 5 hr at 37° C. and the cells crossing the fibronectin-coated membrane were counted after wiping the cells off the membrane in the upper chamber with a cotton swab.
The cells that traversed the membrane were fixed with Diff-Quik stain according to the manufacturer's instruction (Dade Diagnostics Inc., Aguada, PR). The cells were counted under a microscope at 320× in four randomly selected fields. The experiments were done in duplicate and repeated at least three times.

For a further assay, the system named is fibroblast cells (T1). The experiment in a line: Fibroblast proliferation assay (MTT), control cells. The protocol:
as §1

The test system of assay [2] is endothelial cells (HUVEC). Kind of assay: Growth inhibition of endothelial cells. On the procedure: (§2) Typically, in an anti-proliferation assay, the suppression of growth in the presence of the compound to be tested is measured. For example, the above cells are incubated with the polypeptides of this invention for a suitable time and the decrease in the growth rate relative to a negative control, i.e., cells of the same cell line which have been incubated in media alone, is measured. Growth of the cell culture can be measured by any method acceptable to one of skill, including but not limited to, 3H-thymidine uptake, cell counting and tetrazolium dye uptake.
(§3) By SDS-PAGE, the bacterial product was smaller than the eukaryotic protein. Because prokaryotically expressed proteins are not glycosylated, the difference in molecular weights probably represents the presence of carbohydrate in the eukaryotic protein. Recombinant proteins were then tested in KS, endothelial and control cell lines. Activity was found only in KS cell lines and endothelial cells.

For assay [3], the system named is KS cell lines. Kind of assay: Growth inhibition of KS cell lines by recombinant proteins. Particulars: recombinant or naturally occurring protein. On the procedure: as §2, §3

Regarding GDVCQDCIQMV [SEQ ID NO:19], the “Cell Proliferation Activity (% of control), KS Y-1” value is reported as 28 % of control in the assay with KS Y-1 cells (KS Y-1, first value column) and 8 % of control in the assay on KS Y-1 cells (KS Y-1). The figures for the “% Cells Migrating Through Membrane (of Control)” value in the assay with KS cell lines [1] (1 μg/mL), in the assay with KS cell lines [1] (10 μg/mL) and with KS cell lines [1] (50 μg/mL) were 78.23%, 40.32% and 20.98%, respectively. In addition, the “Fibroblast Proliferation, % of Control” value in the assay with fibroblast cells (T1) (1 μg/mL) and with fibroblast cells (T1) (10 μg/mL) was 91.3 % of Control in each case.

B1: Saposin A: sphingolipid-binding glycoprotein derived from Prosaposin, recombinant (protein, UniProt P07602 60-142, looked up)
Saposin-A: SLPCDICKDVVTAAGDMLKDNATEEEILVYLEKTCDWLPKPNMSASCKEIVDSYLPVILDIIKGEMSRPGEVCSALNLCESLQ
modifications: Saposin-A
Turning to B1, in assay [2], the “growth inhibition / activity against endothelial cells” value is on record as “no activity”. The “growth inhibition / activity against KS cell lines” value in the assay with KS cell lines [3] was “no activity”.

B2: Saposin D: sphingolipid-binding glycoprotein derived from Prosaposin, recombinant (protein, UniProt P07602 405-486, looked up)
Saposin-D: DGGFCEVCKKLVGYLDRNLEKNSTKQEILAALEKGCSFLPDPYQKQCDQFVAEYEPVLIEILVEVMDPSFVCLKIGACPSAH
modifications: Saposin-D
Turning to B2, the “growth inhibition / activity against endothelial cells” value in assay [2] was “no activity”. Moreover, in the assay with KS cell lines [3], the “growth inhibition / activity against KS cell lines” value is listed as “no activity”.

B3: Prosaposin: 70 kD glycoprotein, precursor of Saposin A, B, C and D; naturally occurring full-length (protein, listed as Homo sapiens)
chain: MYALFLLASLLGAALAGPVLGLKECTRGSAVWCQNVKTASDCGAVKHCLQTVWNKPTVKSLPCDICKDVVTAAGDMLKDNATEEEILVYLEKTCDWLPKPNMSASCKEIVDSYLPVILDIIKGEMSRPGEVCSALNLCESLQKHLAELNHQKQLESNKIPELDMTEVVAPFMANIPLLLYPQDGPRSKPQPKDNGDVCQDCIQMVTDIQTAVRTNSTFVQALVEHVKEECDRLGPGMADICKNYISQYSEIAIQMMMHMQPKEICALVGFCDEVKEMPMQTLVPAKVASKNVIPALELVEPIKKHEVPAKSDVYCEVCEFLVKEVTKLIDNNKTEKEILDAFDKMCSKLPKSLSEECQEVVDTYGSSILSILLEEVSPELVCSMLHLCSGTRLPALTVHVTQPKDGGFCEVCKKLVGYLDRNLEKNSTKQEILAALEKGCSFLPDPYQKQCDQFVAEYEPVLIEILVEVMDPSFVCLKIGACPSAHKPLLGTEKCIWGPSYWCQNTETAAQCNAVEHCKRHVWN
modifications: prosaposin
notes: 70 kD glycoprotein, precursor of Saposin A, B, C and D; naturally occurring full-length
For the molecule B3, the “growth inhibition / activity against endothelial cells” value in assay [2] is on record as “no activity”. Moreover, the “growth inhibition / activity against KS cell lines” value in the assay with KS cell lines [3] was “no activity”.
